Results: ChEMBL document CHEMBL2375306, “Antimicrobial peptides containing unnatural amino acid exhibit potent bactericidal activity against ESKAPE pathogens” (Bioorg Med Chem, 2013)
In brackets after ≈: the same amount, converted by molar mass. Square brackets hold non-standard residues; d marks the D form. Peptide text beside a SMILES is read from it. * marks the point of attachment. ξ: configuration not given here. X2 = NCCCC[C@H](NC(=O)[C@H](CCCCN)NC(=O)[C@H](CCCCN)NC(=O)[C@H](CCCCN)NCCCCCC(=O)[C@@H]1Cc2ccccc2CN1*)C(N)=O; X6 = NCCCC[C@H](NC(=O)[C@H](CCCCN)NC(=O)[C@H](CCCCN)NC(=O)[C@H](CCCCN)NCCC(=O)[C@@H]1Cc2ccccc2CN1*)C(N)=O; Pro(3ξ,4ξ-(CH2)4) = O=C(O)[C@H]1NCC2CCCCC21; Phe(4-Cl) = N[C@@H](Cc1ccc(Cl)cc1)C(=O)O; Tic = O=C(O)[C@@H]1Cc2ccccc2CN1; ξE = NC(CCC(=O)O)C(=O)O; ξL = CC(C)CC(N)C(=O)O

Assays:
Type in all cases: functional
Pseudomonas aeruginosa = test: Antibacterial activity against Pseudomonas aeruginosa PAO1 after 24 hrs by broth microdilution method; details: PAO1, 24 h
Enterococcus faecium = test: Antibacterial activity against Enterococcus faecium MMC4 after 24 hrs by broth microdilution method; details: MMC4, 24 h
Klebsiella pneumoniae = test: Antibacterial activity against Klebsiella pneumoniae BAMS clinical isolate 07-18 after 24 hrs by broth microdilution method; details: BAMS clinical isolate 07-18, 24 h
Acinetobacter baumannii = test: Antibacterial activity against Acinetobacter baumannii WRAIR clinical isolate 13 after 24 hrs by broth microdilution method; details: WRAIR clinical isolate 13, 24 h
Staphylococcus aureus = test: Antibacterial activity against methicillin-sensitive Staphylococcus aureus UAMS-1 after 24 hrs by broth microdilution method; details: UAMS-1, 24 h
Klebsiella aerogenes = test: Antibacterial activity against Enterobacter aerogenes after 24 hrs by broth microdilution method

| SMILES | MBC (Pseudomonas aeruginosa) | MIC (Pseudomonas aeruginosa) | MBC (Enterococcus faecium) | MIC (Enterococcus faecium) | MBC (Klebsiella pneumoniae) | MIC (Klebsiella pneumoniae) | MBC (Acinetobacter baumannii) | MIC (Acinetobacter baumannii) | MBC (Staphylococcus aureus) | MIC (Staphylococcus aureus) | MBC (Klebsiella aerogenes) | MIC (Klebsiella aerogenes) |
| --- | --- | --- | --- | --- | --- | --- | --- | --- | --- | --- | --- | --- |
| CC(=O)NCC(=O)N[C@@H](Cc1ccccc1)C(=O)N1Cc2ccccc2C[C@H]1C(=O)N1CC2CCCCC2[C@H]1C(=O)NCC(=O)N[C@@H](CCCCN)C(=O)N1Cc2ccccc2C[C@H]1C(=O)N1CC2CCCCC2[C@H]1C(=O)NCC(=O)N[C@@H](Cc1ccccc1)C(=O)N1Cc2ccccc2C[C@H]1C(=O)N1CC2CCCCC2[C@H]1C(=O)NCC(=O)N[C@@H](CCCCN)C(=O)N1Cc2ccccc2C[C@H]1C(=O)CCN[C@@H](CCCCN)C(=O)N[C@@H](CCCCN)C(=O)N[C@@H](CCCCN)C(=O)N[C@@H](CCCCN)C(N)=O (stereo partly drawn) (Ac-GF[Tic][Pro(3ξ,4ξ-(CH2)4)]GK[Tic][Pro(3ξ,4ξ-(CH2)4)]GF[Tic][Pro(3ξ,4ξ-(CH2)4)]GK-X6) | > 100 µg/mL | > 100 µg/mL | 50 µg/mL (≈ 20.3 µM) | 12.5 µg/mL (≈ 5.06 µM) | > 100 µg/mL | > 100 µg/mL | 25 µg/mL (≈ 10.1 µM) | 12.5 µg/mL (≈ 5.06 µM) | > 100 µg/mL | > 100 µg/mL | > 100 µg/mL | > 100 µg/mL |
| CC(=O)NCC(=O)N[C@@H](Cc1ccc(Cl)cc1)C(=O)N1Cc2ccccc2C[C@H]1C(=O)N1CC2CCCCC2[C@H]1C(=O)NCC(=O)N[C@@H](CCCCN)C(=O)N1Cc2ccccc2C[C@H]1C(=O)N1CC2CCCCC2[C@H]1C(=O)NCC(=O)N[C@@H](Cc1ccc(Cl)cc1)C(=O)N1Cc2ccccc2C[C@H]1C(=O)N1CC2CCCCC2[C@H]1C(=O)NCC(=O)N[C@@H](CCCCN)C(=O)N1Cc2ccccc2C[C@H]1C(=O)N[C@@H](CCCCN)C(=O)N[C@@H](CCCCN)C(=O)N[C@@H](CCCCN)C(=O)N[C@@H](CCCCN)C(N)=O (stereo partly drawn) (Ac-G[Phe(4-Cl)][Tic][Pro(3ξ,4ξ-(CH2)4)]GK[Tic][Pro(3ξ,4ξ-(CH2)4)]G[Phe(4-Cl)][Tic][Pro(3ξ,4ξ-(CH2)4)]GK[Tic]KKKK-NH2) | 50 µg/mL (≈ 19.9 µM) | 50 µg/mL (≈ 19.9 µM) | 25 µg/mL (≈ 9.96 µM) | 6.25 µg/mL (≈ 2.49 µM) | 100 µg/mL (≈ 39.8 µM) | 50 µg/mL (≈ 19.9 µM) | 25 µg/mL (≈ 9.96 µM) | 6.25 µg/mL (≈ 2.49 µM) | 50 µg/mL (≈ 19.9 µM) | 25 µg/mL (≈ 9.96 µM) | > 100 µg/mL | > 100 µg/mL |
| CC(=O)NCC(=O)N[C@@H](Cc1ccccc1)C(=O)N1Cc2ccccc2C[C@H]1C(=O)N1CC2CCCCC2[C@H]1C(=O)NCC(=O)N[C@@H](CCCCN)C(=O)N1Cc2ccccc2C[C@H]1C(=O)N1CC2CCCCC2[C@H]1C(=O)NCC(=O)N[C@@H](Cc1ccccc1)C(=O)N1Cc2ccccc2C[C@H]1C(=O)N1CC2CCCCC2[C@H]1C(=O)NCC(=O)N[C@@H](CCCCN)C(=O)N1Cc2ccccc2C[C@H]1C(=O)CCCCCN[C@@H](CCCCN)C(=O)N[C@@H](CCCCN)C(=O)N[C@@H](CCCCN)C(=O)N[C@@H](CCCCN)C(N)=O (stereo partly drawn) (Ac-GF[Tic][Pro(3ξ,4ξ-(CH2)4)]GK[Tic][Pro(3ξ,4ξ-(CH2)4)]GF[Tic][Pro(3ξ,4ξ-(CH2)4)]GK-X2) | > 100 µg/mL | 100 µg/mL (≈ 39.8 µM) | > 100 µg/mL | 25 µg/mL (≈ 9.96 µM) | 100 µg/mL (≈ 39.8 µM) | 100 µg/mL (≈ 39.8 µM) | 25 µg/mL (≈ 9.96 µM) | 12.5 µg/mL (≈ 4.98 µM) | > 100 µg/mL | 100 µg/mL (≈ 39.8 µM) | > 100 µg/mL | 100 µg/mL (≈ 39.8 µM) |
| CSCC[C@H](NC(=O)C(CC(C)C)NC(=O)[C@H](CCC(=O)O)NC(=O)[C@@H]1C2CCCCC2CN1C(=O)[C@@H]1Cc2ccccc2CN1C(=O)[C@H](CCCCN)NC(=O)CNC(=O)[C@H](CC(C)C)NC(=O)CNC(=O)[C@@H]1C2CCCCC2CN1C(=O)[C@@H]1Cc2ccccc2CN1C(=O)C(CCC(=O)O)NC(=O)[C@H](CCCCN)NC(=O)CNC(=O)[C@H](CC(C)C)NC(=O)CNC(=O)[C@@H]1C2CCCCC2CN1C(=O)[C@@H]1Cc2ccccc2CN1C(=O)[C@H](CCCCN)NC(=O)CNC(C)=O)C(=O)NCC(=O)N[C@@H](CCC(=O)O)C(=O)N[C@@H](CCCNC(=N)N)C(N)=O (stereo partly drawn) (Ac-GK[Tic][Pro(3ξ,4ξ-(CH2)4)]GLGK[ξE][Tic][Pro(3ξ,4ξ-(CH2)4)]GLGK[Tic][Pro(3ξ,4ξ-(CH2)4)]E[ξL]MGER-NH2) | > 100 µg/mL | > 100 µg/mL | > 100 µg/mL | > 100 µg/mL | > 100 µg/mL | > 100 µg/mL | > 100 µg/mL | > 100 µg/mL | > 100 µg/mL | > 100 µg/mL | > 100 µg/mL | > 100 µg/mL |
